Data as given in patent US20060228388A1, “Method for controlling an insect species using a synthetic trail pheromone mimic” (priority 2005, published 2006).

Assays:
[1] = system: eastern tent caterpillar colonies; experiment: Field colony disruption by blanket spraying trees with pheromone-mimic; assay type: in vivo, Malacosoma americanum
Procedure: (§1) Three experiments were conducted, all employing the following protocol. Trees in the experimental plot were divided into two groups. Trees in one group were sprayed with a 1 part per million (ppm) pheromone-mimic formulation and trees in another group were sprayed with a control solution identical to the pheromone mimic formulation except that it lacked the pheromone-mimic. Egg masses were attached to each tree and the fate of the colonies determined by observation.
(§2) In the second experiment, ten control colonies of the eastern tent caterpillar on apple trees survived and thrived while all of ten colonies on treated trees were destroyed within one week. […] While the exact fate of caterpillars on the treated trees is unknown, they most likely succumbed to a combination of weather related factors, starvation, predation, and falls from the trees.

tent caterpillars = experiment: Threshold sensitivity to a narrow line of compound on a paper card; assay type: in vivo, Malacosoma spp.; settings: compound laid out in a narrow line on a paper card
Procedure: (§3) The threshold sensitivity of tent caterpillars to 5β-cholestan-3-one laid out in a narrow line on a paper card was determined to be approximately 10^−11 g/mm. Field tests were conducted by using the compound to form artificial trails that intersected well established, authentic trunk trails of colonies of 3rd-5th instar ETCs. In 19 of 23 replicates of these tests, each involving a different colony, colonies abandoned their authentic trail systems and followed the pathways marked with 5β-cholestan-3-one. […] Other studies indicate that the authentic trail pheromone of the tent caterpillar (Malacosoma spp.) may differ subtly from 5β-cholestan-3-one. Thus, 5β-cholestan-3-one is best considered an analog, or pheromone mimic of the authentic tent caterpillar pheromone.

[2] = system: forest tent caterpillar colonies; experiment: Field colony disruption by blanket spraying trees with pheromone-mimic; assay type: in vivo, Malacosoma disstria; settings: third experiment; ash trees; 1 ppm spray; within one week
Procedure: as §1, §2

[3] = system: colonies of 3rd-5th instar ETCs; experiment: Field test: artificial trails intersecting authentic trunk trails of colonies; assay type: in vivo, Malacosoma americanum
Procedure: as §3

What does the source list for `CC(C)CCC[C@@H](C)[C@H]1CC[C@H]2[C@@H]3CC[C@@H]4CC(=O)CC[C@]4(C)[C@H]3CC[C@]12C` [5β-cholestan-3-one]?
fate of the remaining treated colonies ([1]; first experiment, cherry trees, 1 ppm spray, three remaining colonies): eventually died out; treated colonies completely destroyed ([1]; first experiment, cherry trees, 1 ppm spray, within several days): seven of ten; colonies on treated trees destroyed ([1]; second experiment, apple trees, 1 ppm spray, within one week): all of ten; disrupting the communicative system of the ETC ([1]; solution containing 1 ppm): effective; threshold sensitivity of tent caterpillars (tent caterpillars): approximately 10^−11 g/mm; colonies on treated trees perished [2]: all of fifteen; replicates in which colonies abandoned their authentic trail systems and followed the marked pathways ([3]; field, each replicate a different colony of 3rd-5th instar ETCs): 19 of 23; competitiveness with authentic recruitment trails of the caterpillar ([3]; in vivo): fully competitive
